Measurements as given in patent US20030162187A1, “Method of detecting sexual differentiation disruptor” (priority 1999, published 2003).

Tested on: Qurt medaka
Test: Detection of sexual differentiation-disrupting activity: eggs bred in test solution, genotypic sex by pigment, phenotypic sex by RT-PCR of female-specific Gene 5
Format: in vivo, medaka (Oryzias latipes)
Settings: fries hatched from eggs treated with 1 ppb 17 β-estradiol
Experimental: Pairs of mature Qurt medakas each consisting of one male and one female were bred in 3 L of green water (purified water containing chlorella from green algae) at 25° C. under conditions of a light period for 14 hours and a dark period for 10 hours. They were fed with TetraMin three to five times a day setting the amount of TetraMin such that it was consumed within three to five minutes,;and then spawned. Eggs resulted from five pairs were placed in a Petri dish immediately after spawning, separated each other using tweezers in tap water from which chlorine had been removed and washed. The water was replaced by a 1 -ppb 17 β-estradiol (E2) aqueous solution containing 0.1% dimethyl sulfoxide. The mixture was dispensed into wells of 96-well round bottom microplate (#3797, Corning) which had been extensively washed with ultrapure water such that each well contained one egg. After covering with a lid, the microplate was incubated in an incubator at 25° C. On the third day from the start of incubation, males and females were distinguished by examining the yellow pigment which is expressed in a male-specific manner as autofluorescence using a fluorescence microscope (Nikon) The incubation was further continued, and fries then hatched on the 7th to 9th day after spawning. Fries were collected on the 12th day after spawning (the 3rd to 5th day after hatching), then soaked in RNAlater (#7021, Ambion) and stored at −80° C. RNAs were extracted from the fries using StrataPrep Total RNA Miniprep Kit (#400711, Stratagene). The test samples were soaked in a lysis solution attached to the kit, and homogenized in 1.5 -mL tubes using a pellet mixer (Urin Seisakusho). Then, extraction was completed according to the manual attached to the kit. The extracted RNAs were subjected to TaKaRa One Step RNA PCR Kit (AMV) (Takara Shuzo). 1st PCRs were carried out using a pair of primers F1 (SEQ ID NO: 30) and R1 (SEQ ID NO: 31) which is used to amplify a region of 729 bp in Gene 5 (SEQ ID NO: 5), a gene expressed in a female-specific manner. […]

## C[C@]12CC[C@@H]3c4ccc(O)cc4CC[C@H]3[C@@H]1CC[C@@H]2O [17 β-estradiol]
  genotypic females for which expression of Gene 6 was not observed: two out of the five
  genotypic males for which expression of Gene 5 was observed: two out of the five
  sexual differentiation (genotypic vs phenotypic sex): the sexual differentiation was disrupted
